This is an account of results in patent publication US20120214847A1, “2-[1-PHENYL-5-HYDROXY-4a-SUBSTITUTED-HEXAHYDROCYCLOPENTA[F]INDAZOL-5-YL]ETHYL PHENYL DERIVATIVES AS GLUCOCORTICOID RECEPTOR LIGANDS” (Merck Sharp & Dohme Corp., priority 2009, published 2012).

The target in this test is T1, human GR (Homo sapiens, UniProt P04150).
T1 construct: naturally expresses the human GR; endogenous in cells
T1 sequence (P04150 1-777): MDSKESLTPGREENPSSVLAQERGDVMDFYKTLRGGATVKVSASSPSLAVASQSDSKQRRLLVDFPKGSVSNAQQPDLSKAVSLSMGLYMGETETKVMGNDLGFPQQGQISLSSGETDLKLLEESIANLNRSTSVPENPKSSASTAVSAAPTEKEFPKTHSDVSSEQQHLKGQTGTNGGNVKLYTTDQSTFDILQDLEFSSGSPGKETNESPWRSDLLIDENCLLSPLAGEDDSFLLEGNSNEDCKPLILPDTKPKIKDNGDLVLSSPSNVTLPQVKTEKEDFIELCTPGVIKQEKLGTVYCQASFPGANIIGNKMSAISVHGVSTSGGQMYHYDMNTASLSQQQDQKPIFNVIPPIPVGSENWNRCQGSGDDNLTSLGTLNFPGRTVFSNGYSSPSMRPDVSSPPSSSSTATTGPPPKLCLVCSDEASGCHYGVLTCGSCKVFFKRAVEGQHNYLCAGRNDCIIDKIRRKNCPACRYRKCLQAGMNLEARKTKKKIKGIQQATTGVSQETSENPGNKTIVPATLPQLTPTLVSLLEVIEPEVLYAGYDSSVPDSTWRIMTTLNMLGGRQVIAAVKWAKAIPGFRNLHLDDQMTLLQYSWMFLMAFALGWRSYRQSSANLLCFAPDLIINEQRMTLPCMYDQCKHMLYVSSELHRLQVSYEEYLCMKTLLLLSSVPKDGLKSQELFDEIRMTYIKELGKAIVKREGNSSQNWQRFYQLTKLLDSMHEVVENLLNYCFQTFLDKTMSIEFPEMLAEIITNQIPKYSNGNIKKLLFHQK
Nature of the test: Transrepression assay (GITAR), TNFα-β-lactamase reporter in U937 cells. Format: cell-based. To be noted: for EC50: IP = inflection point; for Emax: U-937, U937 cells. The source says: Transrepression Assay (GITAR)
This assay assesses the ability of test compounds to control transcription from the TNFα-β-lactamase reporter gene in U937 cells, a human myelomonocytic leukemia cell line that naturally expresses the human GR. The assay measures compound dependent-repression of the TNFa promoter linked to a reporter gene.
The human U937 cells that had been stablely transfected with the TNF-a promoter driving ˜-lactamase are used for this assay. U937 cells contain an endogenous glucocorticoid receptor (GR). Cells are maintained in RPMI 1640 Growth medium (GibcoCat#11875-093) containing 25 mM HEPES, 10% FBS, 2 mM L-Glutamine, 1 mM Sodium pyruvate, 25 μg/ml Gentamicin (Gibed Cat#1571 0-064), 1:1000 2-Mercaptoethanol (Gibco Cat#21985-023) and 0.8 mg/ml G418 (Gibco Cat#10131-027). The density of the cells in the flask needs to be about 1×10^6-3×10^6/ml at the time of harvest. Usually, the cells are split to 1.2˜1.4×10^5/ml (1:10) 3 days prior to the assay. 50,000 cells/well are plated in 96 well black-walled plates the day of assay. Test compounds are added 10 J.lL/well, and cells are incubated at 37° C. for 30˜45 min. For assaying compounds, first dilute 1:10 in DMSO to make 1 mM, then further dilute 1:100 in medium to make 10× stock prior to adding to the cells. Add 50 ng/ml PMA (Sigma, cat#P8139) 10 μL/well to a final concentration 5 ng/ml, and 1 μg/ml LPS (Sigma, cat#L4130) 10 μL/well to a final concentration 100 ng/ml. Incubate cells at 370 C overnight for −18 hr. PMA is stored frozen as […] in DMSO. Dilute 1:10 in DMSO for a working stock of 10 μg/ml and store at −20° C. For assaying, dilute the 10 μg/ml working stock 1:200 in medium to make a 10× solution (50 ng/ml). Store frozen LPS at 1 mg/ml in PBS, dilute 1:1000 in medium to make 10×μg/ml) for the assay. Add 6× loading buffer (CCF2-AM) 20 μL/well, and incubate at room temperature for 70-90 min. […] The activity repressed by 100 nM dexamethasone alone is set as 100% activity.

The mark [1] stands for this setting: activity repressed by 100 nM dexamethasone alone set as 100%.

Broadly, the EC50 is the concentration at which the effect is half-maximal. Higher therefore signals weaker potency. For orientation: Emax means the greatest response seen or fitted, relative to the assay's reference. With `CC[C@]12Cc3cnn(-c4ccc(F)cc4)c3C=C1CC[C@@]2(O)CCc1ncccc1C(N)=O` [Example 52, 2-{2-[(4aS,5R)-4a-Ethyl-1-(4-fluorophenyl)-5-hydroxy-1,4,4a,5,6,7-hexahydrocyclopenta[f]indazol-5-yl]ethyl}pyridine-3-carboxamide], the EC50 (U937 cells) stood at 53 nM. Also, the Emax under setting [1] is 85%.

Consider `CS(=O)(=O)c1ccccc1CC[C@]1(O)CCC2=Cc3c(cnn3-c3ccc(F)cc3)C[C@@]21C1CC1` [Example 58, (4aR,5R)-4a-Cyclopropyl-1-(4-fluorophenyl)-5-{2-[2-(methylsulfonyl)phenyl]ethyl}-1,4,4a,5,6,7-hexahydrocyclopenta[f]indazol-5-ol], for which a half-maximal response (U937 cells) (EC50) required 5 nM. The Emax under setting [1] is 88%.

The molecule `CC[C@]12Cc3cnn(-c4cccc(F)c4)c3C=C1CC[C@@]2(O)CCc1ccccc1C(N)=O` [Example 11, 2-{2-[(4aS,5R)-4a-Ethyl-1-(3-fluorophenyl)-5-hydroxy-1,4,4a,5,6,7-hexahydrocyclopenta[f]indazol-5-yl]ethyl}benzamide] yielded an EC50 (U937 cells) of 80 nM. Under setting [1], the Emax was 82%.

The molecule `NC(=O)c1cccnc1CC[C@]1(O)CCC2=Cc3c(cnn3-c3ccc(F)cc3)C[C@@]21C1CC1` [Example 1, 2-{2-[(4aR,5R)-4a-Cyclopropyl-1-(4-fluorophenyl)-5-hydroxy-1,4,4a,5,6,7-hexahydrocyclopenta[f]indazol-5-yl]ethyl}pyridine-3-carboxamide] yielded an EC50 (U937 cells) of 55 nM. Besides, the Emax under setting [1] amounted to 77%.

For `N#Cc1ccccc1CC[C@]1(O)CCC2=Cc3c(cnn3-c3cccnc3)C[C@@]21C1CC1` [Example 30, 2-{2-[(4aR,5R)-4a-Cyclopropyl-5-hydroxy-1-(pyridin-3-yl)-1,4,4a,5,6,7-hexahydrocyclopenta[f]indazol-5-yl]ethyl}benzonitrile], for the setting “U937 cells”, the EC50 worked out at 178 nM. The Emax under setting [1] came to 63%.

`O=S(=O)(c1ccccc1CC[C@]1(O)CCC2=Cc3c(cnn3-c3ccc(F)cc3)C[C@@]21C1CC1)C1CC1` [Example 63, (4aR,5R)-4a-Cyclopropyl-5-{2-[2-(cyclopropylsulfonyl)phenyl]ethyl}-1-(4-fluorophenyl)-1,4,4a,5,6,7-hexahydrocyclopenta[f]indazol-5-ol] registered a half-maximal effective concentration (EC50) (U937 cells) of 127 nM. The molecule further showed an Emax under setting [1] of 75%.

`CC(C)(CO)NC(=O)c1ccccc1CC[C@]1(O)CCC2=Cc3c(cnn3-c3ccc(F)cc3)C[C@@]21C1CC1` [Example 45, 2-{2-[(4aR,5R)-4a-Cyclopropyl-1-(4-fluorophenyl)-5-hydroxy-1,4,4a,5,6,7-hexahydrocyclopenta[f]indazol-5-yl]ethyl}-N-(1-hydroxy-2-methylpropan-2-yl)benzamide] gave an EC50 (U937 cells) of 9 nM. Under setting [1], this molecule had an Emax of 85%.

Take `CC[C@]12Cc3cnn(-c4ccccc4)c3C=C1CC[C@@]2(O)CC(O)c1cc(C#N)ccn1` (stereo partly drawn) [Example 75, 2-{2-[(4aS,5R)-4a-Ethyl-5-hydroxy-1-phenyl-1,4,4a,5,6,7-hexahydrocyclopenta[f]indazol-5-yl]-1-hydroxyethyl}pyridine-4-carbonitrile]: the EC50 (U937 cells) was found to be 235 nM. Under setting [1], the Emax was 67%.

The molecule `NC(=O)C(O)c1ccccc1CC[C@]1(O)CCC2=Cc3c(cnn3-c3ccc(F)cc3)C[C@@]21C1CC1` (single isomer, unassigned) [Example 3b] had an EC50 (U937 cells) of 68 nM. The Emax under setting [1] came to 85%.

In the case of `CC[C@]12Cc3cnn(-c4ccc(F)cc4)c3C=C1CC[C@@]2(O)CCc1cncc(F)c1` [Example 21, (4aS,5R)-4a-Ethyl-1-(4-fluorophenyl)-5-[2-(5-fluoropyridin-3-yl)ethyl]-1,4,4a,5,6,7-hexahydrocyclopenta[f]indazol-5-ol], the midpoint of the response (U937 cells), the EC50, lay at 95 nM. Under setting [1], this molecule had an Emax of 87%.

The molecule `CC[C@]12Cc3cnn(-c4ccc(F)cc4)c3C=C1CC[C@@]2(O)CCc1ccc(F)cn1` [Example 19, (4aS,5R)-4a-Ethyl-1-(4-fluorophenyl)-5-[2-(5-fluoropyridin-2-yl)ethyl]-1,4,4a,5,6,7-hexahydrocyclopenta[f]indazol-5-ol] returned a 50% effective concentration (EC50) (U937 cells) of 263 nM. Under setting [1], this molecule showed a maximum response (Emax) of 77%.

Take `Cc1ccnc(CC[C@]2(O)CCC3=Cc4c(cnn4-c4ccc(F)cc4)C[C@@]32C2CC2)c1` [Example 36, (4aR,5R)-4a-Cyclopropyl-1-(4-fluorophenyl)-5-[2-(4-methylpyridin-2-yl)ethyl]-1,4,4a,5,6,7-hexahydrocyclopenta[f]indazol-5-ol]: under “U937 cells”, the EC50 was found to be 114 nM. Moreover, the maximum response (Emax) under setting [1] came to 72%.

Consider `CC[C@]12Cc3cnn(-c4ccc(F)cc4)c3C=C1CC[C@@]2(O)CC(O)c1ccc(F)cn1` (single isomer, unassigned) [Example 69b], for which a half-maximal effect (U937 cells) (EC50) was put at 94 nM. Also, under “U937 cells, activity repressed by 100 nM dexamethasone alone set as 100%”, the “Transrepression U937 Cells GITAR Emax (%)” value came out at 80%.

For `O=C(NC1(CO)CC1)c1ccccc1CC[C@]1(O)CCC2=Cc3c(cnn3-c3ccc(F)cc3)C[C@@]21C1CC1` [Example 46, 2-{2-[(4aR,5R)-4a-Cyclopropyl-1-(4-fluorophenyl)-5-hydroxy-1,4,4a,5,6,7-hexahydrocyclopenta[f]indazol-5-yl]ethyl}-N-[1-(hydroxymethyl)cyclopropyl]benzamide], the response (U937 cells) was half-maximal at 7 nM (EC50). For the same molecule, under setting [1], the Emax turned out to be 90%.

As for `CC[C@]12Cc3cnn(-c4ccc(F)cc4)c3C=C1CC[C@@]2(O)CC(O)c1c(F)ccnc1Cl` (stereo partly drawn) [Example 74, (4aS,5R)-5-[2-(2-Chloro-4-fluoropyridin-3-yl)-2-hydroxyethyl]-4a-ethyl-1-(4-fluorophenyl)-1,4,4a,5,6,7-hexahydrocyclopenta[f]indazol-5-ol], the midpoint of the response (U937 cells), the EC50, lay at 103 nM. Under setting [1], the maximal effect (Emax) came to 72%.

As for `CC(C)(CO)NC(=O)c1cc(F)cnc1CC[C@]1(O)CCC2=Cc3c(cnn3-c3ccc(F)cc3)C[C@@]21C1CC1` [Example 48, 2-{2-[(4aR,5R)-4a-Cyclopropyl-1-(4-fluorophenyl)-5-hydroxy-1,4,4a,5,6,7-hexahydrocyclopenta[f]indazol-5-yl]ethyl}-5-fluoro-N-(1-hydroxy-2-methylpropan-2-yl)pyridine-3-carboxamide], the concentration for a half-maximal effect (EC50) (U937 cells) stood at 9 nM. Under setting [1], this molecule gave an Emax of 87%.

Where the note is “U937 cells”, `N#Cc1ccccc1CC[C@]1(O)CCC2=Cc3c(cnn3-c3ccccc3)C[C@@]21C1CC1` [Example 27, 2-{2-[(4aR,5R)-4a-Cyclopropyl-5-hydroxy-1-phenyl-1,4,4a,5,6,7-hexahydrocyclopenta[f]indazol-5-yl]ethyl}benzonitrile] yielded an EC50 of 51 nM. In addition, under setting [1], the maximal response (Emax) stood at 86%.

As for `CC[C@]12Cc3cnn(-c4ccc(F)cc4)c3C=C1CC[C@@]2(O)CCc1nccc(OC)c1C(F)C(N)=O` (stereo partly drawn) [Example 65, 2-(2-{2-[(4aS,5R)-4a-Ethyl-1-(4-fluorophenyl)-5-hydroxy-1,4,4a,5,6,7-hexahydrocyclopenta[f]indazol-5-yl]ethyl}-4-methoxypyridin-3-yl)-2-fluoroacetamide], the EC50 (U937 cells) was found to be 195 nM. Besides, the Emax under setting [1] is 63%.

Turning to `NC(=O)CNC(=O)c1cccnc1CC[C@]1(O)CCC2=Cc3c(cnn3-c3ccc(F)cc3)C[C@@]21C1CC1` [Example 43, N-(2-Amino-2-oxoethyl)-2-{2-[(4aR,5R)-4a-cyclopropyl-1-(4-fluorophenyl)-5-hydroxy-1,4,4a,5,6,7-hexahydrocyclopenta[f]indazol-5-yl]ethyl}pyridine-3-carboxamide], the EC50 (U937 cells) came to 52 nM. For the same molecule, the Emax under setting [1] amounted to 86%.
